Measurements published in patent US11478478B2, “2,3-disubstituted 1-acyl-4-amino-1,2,3,4-tetrahydroquinoline derivatives and their use as bromodomain inhibitors” (GLAXOSMITHKLINE INTELLECTUAL PROPERTY (NO.2) LIMITED, priority 2013, dated 2022).

Target: T1, BRD4 BD2 (Homo sapiens, UniProt O60885, Y97A)
T1 construct: BRD4 (1-477) (Y97A) and (Y390A); made in house; host or cells: E. coli (pET15b vector)
Assay: TR-FRET binding assay, BRD4 BD2 (BD1-mutated protein)
Settings: read-out: pIC50 in the BRD4 BD2 assay (converted)
Procedure, shortened: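 Displacement of Alexa Fluor647-labelled bromodomain ligand (at Kd) from 10 nM His-tagged BRD4 (1-477, Y97A) read by Eu-anti-His TR-FRET (665/615 ratio) in pH 7.4 HEPES buffer, 0.5% DMSO. Compound preincubated 30 min at rt, detection ≥30 min. pIC50 derived from four-parameter fit after normalisation to controls.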

SMILES	IC50 [nM]
CC(=O)OC[C@@H]1[C@@H](Nc2ccccc2)c2ccccc2N(C(C)=O)[C@H]1C1CC1 (racemic) [Example 591, rac-((2S,3R,4R)-1-acetyl-2-cyclopropyl-4-(phenylamino)-1,2,3,4-tetrahydroquinolin-3-yl)methyl acetate]	1000 to 100000
CC(=O)N1c2ccccc2[C@H](Nc2ccccc2)[C@@H](CO)[C@@H]1C1CC1 (racemic) [Example 592, rac-1-((2S,3R,4R)-2-cyclopropyl-3-(hydroxymethyl)-4-(phenylamino)-3,4-dihydroquinolin-1(2H)-yl)ethanone]	1000 to 100000
COc1cc2c(cc1C(N)=O)[C@H](Nc1nccc(C)n1)[C@@H](C)[C@H](C1CC1)N2C(C)=O (racemic) [Example 593, rac-(2S,3R,4R)-1-acetyl-2-cyclopropyl-7-methoxy-3-methyl-4-((4-methylpyrimidin-2-yl)amino)-1,2,3,4-tetrahydroquinoline-6-carboxamide]	1000 to 100000
CC(=O)N1c2ccncc2C(Nc2nccc(C)n2)C(C)C1C1CC1 (racemic) [Example 598b, rac-1-((2,3,4 unknown)-2-cyclopropyl-3-methyl-4-((4-methylpyrimidin-2-yl)amino)-3,4-dihydro-1,6-naphthyridin-1(2H)-yl)ethanone]	1000 to 100000
CC[C@H]1[C@H](C)[C@@H](Nc2cccc(C)n2)c2ccccc2N1C(C)=O (single isomer, unassigned) [Example 25a]	100
CC[C@@H]1[C@@H](C)[C@H](Nc2cccc(C)n2)c2ccccc2N1C(C)=O (single isomer, unassigned) [Example 25b]	1000 to 100000
CC(=O)N1c2ccccc2[C@H](Nc2ccccc2)[C@@H](C)[C@@H]1C1CC1 (single isomer, unassigned) [Example 27a]	100
CC(=O)N1c2ccccc2[C@@H](Nc2ccccc2)[C@H](C)[C@H]1C1CC1 (single isomer, unassigned) [Example 27b]	1000 to 100000
CC(=O)N1c2ccccc2[C@H](Nc2cccc(C)n2)[C@@H](C)[C@@H]1C1CC1 (single isomer, unassigned) [Example 29a]	100
CC(=O)N1c2ccccc2[C@@H](Nc2cccc(C)n2)[C@H](C)[C@H]1C1CC1 (single isomer, unassigned) [Example 29b]	1000 to 100000
CC(=O)N1c2ccc(N3CCOCC3)cc2[C@H](Nc2ccccc2)[C@@H](C)[C@@H]1C (single isomer, unassigned) [Example 71a]	1000 to 100000
CC(=O)N1c2ccc(N3CCOCC3)cc2[C@@H](Nc2ccccc2)[C@H](C)[C@H]1C (single isomer, unassigned) [Example 71b]	100
CC(=O)N1c2ccc(N3CCOCC3)cc2[C@@H](Nc2ccccc2)[C@H](C)[C@H]1C1CC1 (single isomer, unassigned) [Example 91b]	1000 to 100000
CC(=O)N1c2cccnc2[C@H](Nc2ccccc2)[C@@H](C)[C@@H]1C1CC1 (single isomer, unassigned) [Example 102b]	1000 to 100000
CC(=O)N1c2cccnc2[C@@H](Nc2cccc(C)n2)[C@H](C)[C@H]1C1CC1 (single isomer, unassigned) [Example 114b]	1000 to 100000
COCCn1cc(-c2ccc3c(c2)[C@H](Nc2cccc(C)n2)[C@@H](C)[C@H](C2CC2)N3C(C)=O)cn1 (single isomer, unassigned) [Example 136a]	100
COCCn1cc(-c2ccc3c(c2)[C@H](Nc2cnc(C)cn2)[C@@H](C)[C@H](C2CC2)N3C(C)=O)cn1 (single isomer, unassigned) [Example 138a]	100

SMILES	IC50 [nM]
COCCn1cc(-c2ccc3c(c2)[C@@H](Nc2cnc(C)cn2)[C@H](C)[C@@H](C2CC2)N3C(C)=O)cn1 (single isomer, unassigned) [Example 138b]	1000 to 100000
CC[C@H]1[C@H](C)[C@@H](Nc2cccc(C)n2)c2cc(F)ccc2N1C(C)=O (single isomer, unassigned) [Example 146a]	100
CC[C@@H]1[C@@H](C)[C@H](Nc2cccc(C)n2)c2cc(F)ccc2N1C(C)=O (single isomer, unassigned) [Example 146b]	1000 to 100000
CC[C@H]1[C@H](C)[C@@H](Nc2ccc(C#N)cc2)c2cc(F)ccc2N1C(C)=O (single isomer, unassigned) [Example 147a]	1000 to 100000
CC[C@@H]1[C@@H](C)[C@H](Nc2ccc(C#N)cc2)c2cc(F)ccc2N1C(C)=O (single isomer, unassigned) [Example 147b]	100
CC(=O)N1c2ccc(C3=CCNCC3)cc2[C@H](Nc2cccc(C)n2)[C@@H](C)[C@@H]1C1CC1 (single isomer, unassigned) [Example 189a]	100
CC(=O)N1c2ccc(C3=CCNCC3)cc2[C@@H](Nc2cccc(C)n2)[C@H](C)[C@H]1C1CC1 (single isomer, unassigned) [Example 189b]	1000 to 100000
CNC(=O)c1ccc2c(c1)[C@H](Nc1cccc(C)n1)[C@@H](C)[C@H](C1CC1)N2C(C)=O (single isomer, unassigned) [Example 239a]	100
CNC(=O)c1ccc2c(c1)[C@@H](Nc1cccc(C)n1)[C@H](C)[C@@H](C1CC1)N2C(C)=O (single isomer, unassigned) [Example 239b]	1000 to 100000
CC(=O)N1c2ccc(C(N)=O)cc2[C@@H](Nc2nccc(C)n2)[C@H](C)[C@H]1C1CC1 (single isomer, unassigned) [Example 397]	1000 to 100000
CNC(=O)c1ccc(N[C@@H]2c3cc(C4=CCOCC4)ccc3N(C(C)=O)[C@H](C3CC3)[C@H]2C)cc1 (single isomer, unassigned) [Example 551a]	1000 to 100000
CC(=O)N1c2ccc(N3CCOCC3)cc2[C@H](Nc2ccccc2)[C@@H](C)[C@@H]1C1CC1 [Example 91a, 1-((2S,3R,4R)-2-cyclopropyyl-3-methyl-6-morpholino-4-(phenylamino)-3,4-dihydroquinolin-1(2H)-yl)ethanone]	100
CC(=O)N1c2ccc(N3CCOCC3)cc2[C@H](Nc2ccc(C#N)cc2)[C@@H](C)[C@@H]1C [Example 197, 4-(((2S,3R,4R)-1-acetyl-2,3-dimethyl-6-morpholino-1,2,3,4-tetrahydroquinolin-4-yl)amino)benzonitrile]	100
CC(=O)N1c2ccc(N3CCNCC3)cc2[C@H](Nc2ccc(C#N)cc2)[C@@H](C)[C@@H]1C [Example 214, 4-(((2S,3R,4R)-1-acetyl-2,3-dimethyl-6-(piperazin-1-yl)-1,2,3,4-tetrahydroquinolin-4-yl)amino)benzonitrile]	100
CCNC(=O)c1ccc2c(c1)[C@H](Nc1cccc(C)n1)[C@@H](C)[C@H](C1CC1)N2C(C)=O [Example 248, (2S,3R,4R)-1-acetyl-2-cyclopropyyl-N-ethyl-3-methyl-4-((6-methylpyridin-2-yl)amino)-1,2,3,4-tetrahydroquinoline-6-carboxamide]	100
COCCNC(=O)c1ccc2c(c1)[C@H](Nc1cccc(C)n1)[C@@H](C)[C@H](C1CC1)N2C(C)=O [Example 256, (2S,3R,4R)-1-acetyl-2-cyclopropyl-N-(2-methoxyethyl)-3-methyl-4-((6-methylpyridin-2-yl)amino)-1,2,3,4-tetrahydroquinoline-6-carboxamide]	100
